These results are taken from patent US8486863B2, “Activators of lateral root formation” (VIB VZW, priority 2006, dated 2013).

One assay concerns the target T1, auxin receptor TIR1 (Arabidopsis thaliana, UniProt Q38825+Q570C0).
T1 construct: made in house; host or cells: wheat germ in vitro transcription/translation (IVTT) extract
Kind of assay: In vitro pull-down binding assay to auxin receptor TIR1. As to conditions: in vitro binding assay (FIG. 2). The procedure: FIG. 2: In vitro binding assay to analyze binding of the 16 selected activators to the auxin receptor TIR1.
Pull-down assays with wheatgerm-expressed TIR1-Myc were performed by combining […] of IVTT reaction extract with […] of biotinylated domain II peptide and […] of EB containing 1 mg/ml BSA with auxin treatments as indicated. The assays were incubated for 30 min at 4° C. and recovered on streptavidin-agarose. The final processing of pull-down assays including electrophoresis, western transfer and blotting with anti-Myc antibodies has been described in Kepinski and Leyser, 2004.
Earlier studies have shown that sirtinol is metabolized in vivo to NAA (Dai et al., 2005) while IAA, NAA, 2,4-D act by binding directly to the auxin-receptor TIR1 (Kepinski and Leyser, 2005).

Assay [1] deals with Wild-type Arabidopsis thaliana. Kind of assay: Dose-response analysis of lateral root density and root length. Type of assay: in vivo. The conditions noted are these: for potency as activator of LR development (LR density): dose-response, FIG. 3. The method, boiled down: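 Wild-type Arabidopsis seedlings, germinated on MS-derived agar, were moved at 3 days to vertical plates containing compound at various concentrations with 1% DMSO (DMSO-only controls). After 7 more days growth, lateral root density (LRs per cm) and root length were measured; error bars are standard errors.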

For assay [2], the system named is genes involved in auxin biosynthesis, auxin transport, auxin signaling and cell cycle. Kind of assay: Q-PCR transcript profiling of roots after compound treatment. As to conditions: 30 μM; 6 hrs or 24 hrs treatment. Type of assay: in vivo, Arabidopsis thaliana. The procedure: FIG. 5: Transcript profiling of roots of wild-type Arabidopsis thaliana plants after 6 hrs or 24 hrs treatment with A2 (upper panel), A14 (middle panel) or A11 (lower panel) at a concentration of 30 μM.
RNA was extracted with the RNeasy kit. Poly(dT) cDNA was prepared from […] of total RNA with Superscript III reverse transcriptase (Invitrogen) and quantified on an LightCycler 480 apparatus (Roche) with the SYBR Green I Master kit (Roche) according to the manufacturers instructions. Target quantifications were performed with specific primer pairs designed with the Beacon Designer 4.0 (Premier Biosoft International). All PCRs were performed in triplicate. […] The primers used to quantify gene expression levels were: […]
Using Q-PCR, the expression of selected genes involved in auxin biosynthesis, auxin transport, auxin signaling and cell cycle was analyzed in response to compound treatment (FIG. 5).

The subject of a further assay is auxin signaling mutants. Nature of the assay: Effect of activators on lateral root density of auxin signaling mutants (Table 2). Type of assay: in vivo, Arabidopsis thaliana. The method, boiled down: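 Arabidopsis auxin signaling mutants were germinated on MS-based vertical plates under continuous light at 22° C, moved to compound-containing medium 3 days after germination, and grown 7 more days. Root length and lateral root number were then counted from images.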

The test system of assay [3] is auxin receptor mutant tir1. Kind of assay: Effect of activators on the auxin receptor mutant tir1 compared with wild type. Type of assay: in vivo, Arabidopsis thaliana. As to conditions: tir1 mutant vs wild type, FIG. 13. The text has this: FIG. 13: Effect of activators on the auxin receptor mutant TIR1 compared with wild type.

T1 sequence (Q570C0 whole entry, other chains not shown): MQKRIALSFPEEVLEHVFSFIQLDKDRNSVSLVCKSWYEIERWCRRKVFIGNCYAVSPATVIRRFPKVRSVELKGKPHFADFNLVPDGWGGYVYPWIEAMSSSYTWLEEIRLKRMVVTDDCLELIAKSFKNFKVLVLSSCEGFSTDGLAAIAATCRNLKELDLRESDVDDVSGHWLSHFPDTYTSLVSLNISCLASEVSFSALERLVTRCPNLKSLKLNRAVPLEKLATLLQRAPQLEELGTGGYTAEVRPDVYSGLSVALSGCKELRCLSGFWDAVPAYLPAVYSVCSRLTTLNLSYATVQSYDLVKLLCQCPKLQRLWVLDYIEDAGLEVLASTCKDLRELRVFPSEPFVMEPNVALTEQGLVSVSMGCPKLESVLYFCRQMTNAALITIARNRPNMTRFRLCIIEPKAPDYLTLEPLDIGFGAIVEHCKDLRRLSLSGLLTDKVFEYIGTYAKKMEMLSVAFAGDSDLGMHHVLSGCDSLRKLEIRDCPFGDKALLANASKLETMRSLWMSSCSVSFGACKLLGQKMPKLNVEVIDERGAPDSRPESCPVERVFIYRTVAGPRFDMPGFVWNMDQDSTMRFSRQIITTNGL

For the compound `O=C(O)C1SCCN1c1ccccc1` (stereo not drawn) [A15, 3-phenyl-1,3-thiazolidine-2-carboxylic acid], the “binding to TIR1” value at auxin receptor TIR1 is “could bind to TIR1”.
As for `CN1C(=O)C(=Cc2ccc(-c3cccc(C(F)(F)F)c3)o2)SC1=S` [A11, 3-methyl-2-thioxo-5-({5-[3-(trifluoromethyl)phenyl]-2-furyl}methylene)-1,3-thiazolidin-4-one], the “compound concentration that increased root density five times compared to controls” value in assay [1] (FIG. 4, 10 days after germination) stood at 20 µM. Also, the Root length in assay [1] (at the concentration that increased root density five times (20 μM A11, 1.5 μM NAA)) is 0.7 times the root length of controls. The “potency as activator of LR development (LR density)” value (“potency as activator” for short) in assay [1] is given as “most potent activators of class 2”. Also, the “stage of LR initiation at which the effect on gene expression is exerted” value (shortened to “stage of LR initiation”) in assay [2] is “late stages of LR initiation (24 h)”. The lateral root density in the assay with auxin signaling mutants (Afb1-1, 30 uM) worked out at 20.74 LR/cm; in the assay on auxin signaling mutants (Afb2-1, 30 uM), 14.04 LR/cm; in the assay with auxin signaling mutants (Afb3-1, 30 uM), 12.99 LR/cm; in the assay with auxin signaling mutants (Arf7Arf19, 30 uM), 0.04 LR/cm; with auxin signaling mutants (Arf16, 30 uM) it was 8.76 LR/cm; with auxin signaling mutants (Arf17, 30 uM), 11.04 LR/cm. In addition, the lateral root density with auxin signaling mutants (Axrt-12, 30 uM) amounted to 12.26 LR/cm; with auxin signaling mutants (Cyp79, 30 uM), 13.74 LR/cm; in the assay on auxin signaling mutants (Iaa28-1, 30 uM), 10.36 LR/cm; in the assay with auxin signaling mutants (Tir1-1, 30 uM), 8.95 LR/cm; in the assay on auxin signaling mutants (Tir7-1, 30 uM) it was 43.59 LR/cm; in the assay on auxin signaling mutants (TirTM, 30 uM), 0.00 LR/cm. Besides, the lateral root density with auxin signaling mutants (Xbat32, 30 uM) turned out to be 7.76 LR/cm.
Turning to `CCOC(=O)c1c(NC(=O)COc2ccc(Cl)cc2C)sc2c1CC(C)(C)OC2` [A2, ethyl 2-{[(4-chloro-2-methylphenoxy)acetyl]amino}-5,5-dimethyl-4,7-dihydro-5H-thieno[2,3-c]pyran-3-carboxylate], the “potency as activator” value in assay [1] is listed as “most potent activators of class 2”. Moreover, the “stage of LR initiation” value in assay [2] is “early stages of LR initiation (6 h)”. The lateral root density in the assay on auxin signaling mutants (Afb1-1, 30 uM) is 13.86 LR/cm; in the assay with auxin signaling mutants (Afb2-1, 30 uM), 10.07 LR/cm; with auxin signaling mutants (Afb3-1, 30 uM), 10.03 LR/cm; with auxin signaling mutants (Arf7Arf19, 30 uM) it was 0.00 LR/cm; in the assay on auxin signaling mutants (Arf16, 30 uM), 9.56 LR/cm; in the assay on auxin signaling mutants (Arf17, 30 uM), 8.67 LR/cm. Further, the lateral root density in the assay on auxin signaling mutants (Axrt-12, 30 uM) came out at 13.97 LR/cm; in the assay with auxin signaling mutants (Cyp79, 30 uM) it was 13.69 LR/cm; in the assay with auxin signaling mutants (Iaa28-1, 30 uM), 4.32 LR/cm; in the assay on auxin signaling mutants (Tir1-1, 30 uM), 11.98 LR/cm; in the assay on auxin signaling mutants (Tir7-1, 30 uM), 28.57 LR/cm; with auxin signaling mutants (TirTM, 30 uM) it was 0.00 LR/cm. The lateral root density in the assay on auxin signaling mutants (Xbat32, 30 uM) was 9.67 LR/cm.
`COc1ccccc1CNC(=O)C(C)Sc1ccc(Cl)cc1` (stereo not drawn) [A14, 2-[(4-chlorophenyl)thio]-N-(2-methoxybenzyl)propanamide]: in assay [1], the “potency as activator” value is recorded as “most potent activators of class 2”. Moreover, the “stage of LR initiation” value in assay [2] was “early stages of LR initiation (6 h)”. Moreover, the “TIR1 dependence of the working of the compound” value in assay [3] is reported as “strictly TIR1 dependent”. Further, the lateral root density stood at 24.29 LR/cm in the assay on auxin signaling mutants (Afb1-1, 30 uM); 22.38 LR/cm in the assay on auxin signaling mutants (Afb2-1, 30 uM); 30.09 LR/cm with auxin signaling mutants (Afb3-1, 30 uM); 0.00 LR/cm in the assay with auxin signaling mutants (Arf7Arf19, 30 uM); 32.75 LR/cm with auxin signaling mutants (Arf16, 30 uM); 32.68 LR/cm in the assay on auxin signaling mutants (Arf17, 30 uM). The lateral root density with auxin signaling mutants (Axrt-12, 30 uM) worked out at 34.01 LR/cm; with auxin signaling mutants (Cyp79, 30 uM), 33.25 LR/cm; in the assay with auxin signaling mutants (Iaa28-1, 30 uM), 20.71 LR/cm; with auxin signaling mutants (Tir1-1, 30 uM), 0.52 LR/cm; in the assay on auxin signaling mutants (Tir7-1, 30 uM), 33.41 LR/cm; with auxin signaling mutants (TirTM, 30 uM) it was 0.00 LR/cm. Also, the lateral root density in the assay with auxin signaling mutants (Xbat32, 30 uM) is 10.88 LR/cm.
On to `COc1cc(-c2nc3ccccn3c2N=Cc2cccc(Cl)c2Cl)ccc1O` [A10, 4-{3-[(2,3-dichlorobenzylidene)amino]imidazo[1,2-a]pyridin-2-yl}-2-methoxyphenol], for which the “TIR1 dependence of the working of the compound” value in assay [3] is reported as “strictly TIR1 dependent”. Also, the lateral root density with auxin signaling mutants (Afb1-1, 3 uM) is reported as 11.79 LR/cm; in the assay on auxin signaling mutants (Afb2-1, 3 uM), 15.90 LR/cm; in the assay with auxin signaling mutants (Afb3-1, 3 uM), 17.08 LR/cm; with auxin signaling mutants (Arf7Arf19, 3 uM) it was 0.00 LR/cm; with auxin signaling mutants (Arf16, 3 uM), 19.95 LR/cm; in the assay on auxin signaling mutants (Arf17, 3 uM), 10.80 LR/cm. Besides, the lateral root density with auxin signaling mutants (Axrt-12, 3 uM) was found to be 7.90 LR/cm; in the assay on auxin signaling mutants (Cyp79, 3 uM), 33.08 LR/cm; in the assay with auxin signaling mutants (Iaa28-1, 3 uM) it was 0.00 LR/cm; in the assay with auxin signaling mutants (Tir1-1, 3 uM), 0.77 LR/cm; with auxin signaling mutants (Tir7-1, 3 uM) it was 8.49 LR/cm; with auxin signaling mutants (TirTM, 3 uM), 0.00 LR/cm. In addition, the lateral root density with auxin signaling mutants (Xbat32, 3 uM) came out at 8.37 LR/cm.
